The assay deals with Coxsakie B3 virus. The assay is described as follows: organism not typed. Format: cell-based. The settings on record: 36 h, read-out: IC50 (half inhibitory concentration for the virus). The protocol:
Treatment of the sample: The sample was first dissolved in DMSO to appropriate concentration. The sample solutions were then diluted the samples in culture medium solution to obtain eight concentrations.
Methods: The Veo cells were cultured in 96-well plates. The cells were infected with Coxsakie B3 virus for 2 hours after 24 hours of incubation. The solution containing the virus was then discarded. The samples were then added into the wells at the concentrations with the appropriate controls. The cell pathological extent (CPE) was observed 36 hours later. The half inhibitory concentration (IC50) was calculated by using the method of Reed-Muench.
(1) “-” means that the sample has no anti Coxsakie B3 virus effect at the maximal dose with no toxicity. (2) TC50 indicates the half toxic concentration; IC50 indicates the half inhibitory concentration for the virus; SI indicates the selective index, calculated as the follow: SI=TC50/IC50

The structures appear in SMILES notation. In brackets after ≈: the same amount, converted by molar mass.

On to `NC(=O)c1ncn([C@@H]2O[C@H](CO)[C@@H](O)[C@H]2O)n1` [RBV, Ribavirin, reference compound], for which the IC50 is 448 µg/mL (≈ 1830 µM).

These data come from patent publication US20090203775A1, “Novel compound and a novel microorganism for producing the novel compound” (Haiyi Biotech Pte, Ltd., priority 2005, published 2009).
